The values that follow come from patent publication US7947733B2, “Phosphorylated pyrone analogs and methods” (Limerick BioPharma, priority 2007, dated 2011).

“And” between values parts separate entries of the source, which are not always exact repeats. Identical values can stand only once.

One data set has as its system kidney of rats. The data set can be described thus: Renal pathology in rats co-administered with quercetin-3′-O-phosphate and tacrolimus. The data set is classed as in vivo, rat. The conditions noted are these: tacrolimus (Prograf) 0.5 mg/kg and inert vehicle, 25 days. The method, then:
Tissue is removed from the kidney of rats treated with tacrolimus (Prograf®) at 0.5 mg/kg and inert vehicle, and from rats treated with tacrolimus (Prograf®) at 0.5 mg/kg and quercetin-3′-O-phosphate (Q-Phosphate) at 11 mg/kg, 28 mg/kg, and at 114 mg/kg for 25 days. […] The tissue from rats treated with Q-Phosphate and tacrolimus show no vacuoles.

A further data set deals with rats. In words: Blood glucose levels in rats co-administered with quercetin-3′-O-phosphate and tacrolimus. The data set is classed as in vivo, rat. The conditions noted are these: for Blood glucose, Mean change from all vehicle control / Blood glucose, Mean change from Day 1: Prograf 0.5 mg/kg i.p. + Vehicle 1; for Blood glucose, Mean: Prograf 0.5 mg/kg i.p. Day 1 to Day 25 + Vehicle 1, 5 rats; for Blood glucose, individual rats: Prograf 0.5 mg/kg i.p. once daily Day 1 to Day 25 + Vehicle 1 Day 11 to Day 25. The method, then:
One set of 5 rats is treated from day 1 to day 25 with inert vehicle 2 intraperitoneally and treated from day 11 to day 25 with inert vehicle 1 intraperitoneally. […] A third set 5 of rats is treated from day 1 to day 25 with tacrolimus (Prograf®) intraperitoneally at 0.5 mg/kg, and treated from day 11 to day 25 intraperitoneally with quercetin-3′-O-phosphate (Q-Phosphate) at 114 mg/kg. The blood glucose level in the rats is measured on days 1, 10, 15, 20, and 25.

For data set [1] the following is noted: in vivo; cited from earlier work.

Turning to `C=CC[C@@H]1/C=C(\C)C[C@H](C)C[C@H](OC)[C@H]2O[C@@](O)(C(=O)C(=O)N3CCCC[C@H]3C(=O)O[C@H](/C(C)=C/[C@@H]3CC[C@@H](O)[C@H](OC)C3)[C@H](C)[C@@H](O)CC1=O)[C@H](C)C[C@@H]2OC` [Prograf ®, tacrolimus, reference compound], the “vacuolation of kidney tissue” value with kidney of rats is “significant vacuolation”. Also, the “Blood glucose, Mean change from all vehicle control” value is -0.10 g/L in the data set on rats (Day 1); “+0.23 g/l” with rats (Day 10); “+1.27 g/l” with rats (Day 15); “+1.81 g/l” in the data set with rats (Day 20); “+1.38 g/l” in the data set on rats (Day 25). For the same compound, the “Blood glucose, Mean” value in the data set on rats (Day 1) came to 1.27 g/L; in the data set with rats (Day 10) it was 1.49 g/L; with rats (Day 15) it was 2.54 g/L; in the data set on rats (Day 20), 2.93 g/L; in the data set on rats (Day 25), 2.55 g/L. Also, the “Blood glucose, individual rats” value in the data set with rats (Day 1) is 1.16 g/l (2×) and 1.34 g/l and 1.22 g/l and 1.47 g/l; in the data set on rats (Day 10), 1.30 g/L and 1.39 g/L and 1.40 g/L and 1.09 g/L and 2.25 g/L; with rats (Day 15), 3.72 g/L and 1.67 g/L and 2.31 g/L and 1.97 g/L and 3.02 g/L; in the data set on rats (Day 20), 2.79 g/L and 3.70 g/L and 2.97 g/L and 2.41 g/L and 2.77 g/L; with rats (Day 25) it was 0.97 g/L and 3.16 g/L and 1.69 g/L and 2.98 g/L and 3.96 g/L. The “Blood glucose, Mean change from Day 1” value with rats (Day 10) was “+0.22 g/l”; in the data set with rats (Day 15) it was “+1.27 g/l”; in the data set on rats (Day 20) it was “+1.66 g/l”; with rats (Day 25), “+1.28 g/l”.
Take `O=c1c(O)c(-c2ccc(O)c(O)c2)oc2cc(O)cc(O)c12` [quercetin aglycone, quercetin]: in data set [1], the serum half-life was 19 to 25 h.
